Laboratory results: patent publication US20250138013A1, “SMALL MOLECULE INHIBITOR TARGETING A LEUKEMIC STEM CELL ASSOCIATED GENE FOR HIGH-RISK AML PATIENTS” (The Chinese University of Hong Kong, priority 2023, published 2025)
“Also recorded” adds a separate entry of the source.

Tests used:
[1] = system: SLC7A11 mRNA expression in MOLM13-EV and MOLM13-SPINK2 cells; experiment: qPCR of SLC7A11 after Nutlin-3a in MOLM13-EV and MOLM13-SPINK2 cells; format: cell-based; conditions: Nutlin-3a 1 μM, 48 hours and 72 hours
Description: Previously, p53 transcriptionally represses SLC7A11 expression, thereby playing an important pro-ferroptotic role. The data has shown that p53 pathway genes are inversely affected upon SPINK2 modulation (Tables S11 & S12). Based on the hypothesis that SPINK2 overexpression in MOLM13 cells might counteract the p53-mediated repression of SLC7A11, MOLM13-EV and MOLM13-SPINK2 cells are treated with the p53 activator, Nutlin-3a (1 μM), for 48 hours and 72 hours. […] Of note, the effects of Nutlin-3a could not be tested in KG1a cells, since they have a TP53 mutation which renders them insensitive to Nutlin-3a activity.
GFP-labelled lentiviruses are used for assessing the biological significance of SPINK2 in AML by overexpressing SPINK2 in OCIAML3 and MOLM13 cells (pRSC—SFFV-SPINK2-E2A-Puro-E2A-GFP-Wpre) and empty vector, EV (pRSC—SFFV-Puro-E2A-GFP-wpre) are provided. Transduction is performed in approximately 2×10^5 cells/ml at a multiplicity of infection (MOI) of 20 using Retronectin®-coated 6-well plates according to the manufacturer's instructions (Takara Bio Inc.) This is followed by puromycin selection (1 μg/ml) for at least seven days. Functional studies are then performed on cells as described and extra cells are cryopreserved.

[2] = system: SPINK2 protein expression in GDM1 cells; experiment: Western blot of SPINK2 protein after SMI treatment, GDM1; format: cell-based
Description: (§1) The SMI is initially tested with increasing doses for its effect upon cell viability in KG1a cells. […] This dose is then tested on GDM1, MOLM13 and OCIAML3 cells.
(§2) Cells are harvested, washed in Phosphate-buffered saline (PBS) and lysed using Pierce™ IP Lysis Buffer. Protein concentration is measured using Pierce™ BCA Protein Assay Kit. Approximately 30 μg of whole cell lysates are mixed with 4× Laemmli Buffer and β-mercaptoethanol and denatured for 5 minutes at 95° C. Lysates are equally loaded onto and separated using freshly prepared polyacrylamide gels. Proteins are transferred onto 0.2 μm Immun-Blot® PVDF membranes using FLASHBlot transfer buffer. The membranes are then blocked for one hour at room temperature with 5% non-fat dry milk in TBS Tween™ 20 Buffer. This is followed by incubation with primary antibodies diluted in 5% bovine serum albumin (BSA) at 4° C. overnight. Primary antibody dilutions are as follows: SPINK2 (1:1000), ALCAM (1:10000), β-ACTIN (1:10000), GAPDH (1:2500). […]
(§3) Cells are seeded into 96-well plates at a density of approximately 2×10^5 cells/ml and drugs are added at indicated concentrations. Cell viability is measured at indicated time points using Cell Titer-GLO® Luminescent Cell Viability Assay. […]

[3] = Solubility in DMSO and other solvents; format: physicochemical
Excerpt: In another embodiment, the SMI is screened via a structure-based virtual screening (SBVS) and selected from a group of bioactive molecules due to its efficient binding affinity based on its idock scores and its capacity to dissolve in at least one solvent selected from a group comprising of dimethyl sulfoxide (DMSO), water, ethanol or dimethylformamide (DMF).
To identify potential SPINK2-SMIs, Structure-based Virtual Screening (SBVS) is initially employed for in silico screening of a small-molecule library comprising 1.5 million compounds to identify bioactive molecules that bind to the targeting domain of SPINK2 (FIG. 16A).

[4] = system: SLC7A11 mRNA expression in KG1a cells; experiment: qPCR of SPINK2 target gene SLC7A11 after SMI treatment, KG1a; format: cell-based
Description: as §1
(§4) Cells are seeded into 96-well plates at a density of approximately 2×10^5 cells/ml and drugs are added at indicated concentrations. Cell viability is measured at indicated time points using Cell Titer-GLO® Luminescent Cell Viability Assay. For assessment of gene expression after drug treatment, cells are seeded in 6-well plates at approximately 4×10^5 cells/ml and drugs are added at indicated doses. RNA and/or protein is extracted 72 hours later. qPCR and Western Blot are then performed according to standard procedures to detect target gene and protein expression.

[5] = system: SPINK2 protein expression in KG1a cells; experiment: Western blot of SPINK2 protein after SMI treatment, KG1a; format: cell-based
Description: as §1, §2, §3

[6] = system: STEAP3 mRNA expression in KG1a cells; experiment: qPCR of SPINK2 target gene STEAP3 after SMI treatment, KG1a; format: cell-based
Description: as §1, §4

[7] = system: SPINK2^high cells (KG1a and GDM1) vs. SPINK2^low cells (OCIAML3 and MOLM13); experiment: Cytotoxicity compared between SPINK2high and SPINK2low cell lines (Cell Titer Glo); format: cell-based; conditions: 72 h treatment, compared with SMI-2
Description: (§5) Cells are treated with the SMIs and control (DMSO) for 72 hours and their viability is detected using the Cell Titer Glo® assay according to the manufacturer's instructions. Statistical analysis is performed using one-way ANOVA with Tukey's multiple comparisons test with Mean+SD of at least 2 independent experiments.
as §4

KG1a cells = experiment: Cell Titer-GLO cell viability assay, KG1a; format: cell-based
Description: as §1, §5, §4

GDM1 cells = experiment: Cell Titer-GLO cell viability assay, GDM1; format: cell-based; conditions: GDM1 (SPINK2high), 150 μM for 72 hours
Description: as §1, §5, §4

Row | solubility in DMSO [3] | SMILES | SLC7A11 mRNA expression [1] | SPINK2 protein expression [2] | SLC7A11 mRNA expression [4] | SPINK2 protein expression [5] | STEAP3 mRNA expression [6] | toxicity/specificity against SPINK2high vs SPINK2low cells [7] | toxicity/specificity against SPINK2high vs SPINK2low cells ([7]; listed as SMI-5) | cytotoxicity at 150 µM (KG1a cells; Homo sapiens, KG-1a, KG1a cells, 150 μM, 72nd hour, read-out: reduction of cell viability) [%] | effect on cell viability (KG1a cells; KG1a (SPINK2high), 150 μM for 72 hours) | effect on cell viability (GDM1 cells)
1 |  | COc1ccc(C2=N[C@@H](c3ccc(Cl)cc3)[C@@H](c3ccc(Cl)cc3)N2C(=O)N2CCNC(=O)C2)c(OC(C)C)c1 [Nutlin-3a] | reduced in MOLM13-EV cells to a significantly greater extent than in MOLM13-SPINK2 cells |  |  |  |  |  |  |  |  | 
2 | soluble in DMSO | C[C@]12C(=O)N(c3cccc(C(=O)O)c3)C(=O)[C@H]1C1c3ccccc3C2c2ccccc21 [SMI, 3-[(15R,19S)-15-methyl-16,18-dioxo-17-azapentacyclo [6.6.5.02,7.09, 14.015,19]nonadeca-2,4,6,9,11,13-hexaen-17-yl]benzoic acid] |  | decreased | downregulation | decreased | upregulation | selectively decreased viability | greater toxicity; also recorded: greater specificity | ~50 | significantly decreased cell viability | significantly decreased cell viability
